In patent US20250152585A1, “PHARMACEUTICAL COMPOUND” (Duke Street Bio Limited, priority 2022, published 2025):
Read-outs that look alike come from different tables or passages of the source.

Columns and labels:
[1] = target: T1, full length N-terminally FLAG-tagged PARP1 (Homo sapiens, UniProt P09874); assay: PARP1 biochemical DELFIA assay (auto-PARylation); design: recombinant full length human N-terminally FLAG-tagged PARP1
[2] = target: T2, N-terminally FLAG-tagged PARP2 (amino acids 1-583) (Homo sapiens, UniProt Q9UGN5); assay: PARP2 probe displacement HTRF assay; format: binding; details: binned Kd
T2 construct: N-terminally FLAG-tagged PARP2 (amino acids 1-583)
Procedure: Data analysis was performed identical as for PARP1.

[3] = target: T1, full length N-terminally FLAG-tagged PARP1; assay: PARP1 probe displacement HTRF assay; details: for Selectivity: PARP1 over PARP2, ratio Kd (PARP2)/Kd (PARP1); for Kd: binned Kd
[4] = binned IC50, biochemical auto-PARylation assay
[5] = read-out: PARP1 HTRF, probe displacement HTRF
[6] = binned IC50, PARP1 biochemical DELFIA assay
[7] = read-out: PARP1 HTRF, PARP1 probe displacement HTRF
[8] = PARP1 HTRF, PARP1 probe displacement HTRF

T2 sequence (Q9UGN5 whole entry, the tested form may be a part): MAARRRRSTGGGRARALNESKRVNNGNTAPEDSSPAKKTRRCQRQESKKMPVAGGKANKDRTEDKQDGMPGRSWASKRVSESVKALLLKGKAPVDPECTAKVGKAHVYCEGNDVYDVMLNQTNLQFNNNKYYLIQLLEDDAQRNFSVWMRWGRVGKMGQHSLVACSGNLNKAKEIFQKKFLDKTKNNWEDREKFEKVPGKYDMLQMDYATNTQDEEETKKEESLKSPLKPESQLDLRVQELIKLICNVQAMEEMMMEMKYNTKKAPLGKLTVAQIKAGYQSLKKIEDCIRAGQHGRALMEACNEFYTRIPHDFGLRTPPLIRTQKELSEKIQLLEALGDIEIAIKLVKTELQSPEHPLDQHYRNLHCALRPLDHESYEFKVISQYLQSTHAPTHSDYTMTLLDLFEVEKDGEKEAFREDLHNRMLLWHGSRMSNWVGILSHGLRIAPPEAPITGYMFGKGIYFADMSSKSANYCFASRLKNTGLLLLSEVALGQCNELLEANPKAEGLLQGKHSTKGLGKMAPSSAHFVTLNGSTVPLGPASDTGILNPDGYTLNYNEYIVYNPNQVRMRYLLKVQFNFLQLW
T1 sequence (P09874 whole entry, the tested form may be a part): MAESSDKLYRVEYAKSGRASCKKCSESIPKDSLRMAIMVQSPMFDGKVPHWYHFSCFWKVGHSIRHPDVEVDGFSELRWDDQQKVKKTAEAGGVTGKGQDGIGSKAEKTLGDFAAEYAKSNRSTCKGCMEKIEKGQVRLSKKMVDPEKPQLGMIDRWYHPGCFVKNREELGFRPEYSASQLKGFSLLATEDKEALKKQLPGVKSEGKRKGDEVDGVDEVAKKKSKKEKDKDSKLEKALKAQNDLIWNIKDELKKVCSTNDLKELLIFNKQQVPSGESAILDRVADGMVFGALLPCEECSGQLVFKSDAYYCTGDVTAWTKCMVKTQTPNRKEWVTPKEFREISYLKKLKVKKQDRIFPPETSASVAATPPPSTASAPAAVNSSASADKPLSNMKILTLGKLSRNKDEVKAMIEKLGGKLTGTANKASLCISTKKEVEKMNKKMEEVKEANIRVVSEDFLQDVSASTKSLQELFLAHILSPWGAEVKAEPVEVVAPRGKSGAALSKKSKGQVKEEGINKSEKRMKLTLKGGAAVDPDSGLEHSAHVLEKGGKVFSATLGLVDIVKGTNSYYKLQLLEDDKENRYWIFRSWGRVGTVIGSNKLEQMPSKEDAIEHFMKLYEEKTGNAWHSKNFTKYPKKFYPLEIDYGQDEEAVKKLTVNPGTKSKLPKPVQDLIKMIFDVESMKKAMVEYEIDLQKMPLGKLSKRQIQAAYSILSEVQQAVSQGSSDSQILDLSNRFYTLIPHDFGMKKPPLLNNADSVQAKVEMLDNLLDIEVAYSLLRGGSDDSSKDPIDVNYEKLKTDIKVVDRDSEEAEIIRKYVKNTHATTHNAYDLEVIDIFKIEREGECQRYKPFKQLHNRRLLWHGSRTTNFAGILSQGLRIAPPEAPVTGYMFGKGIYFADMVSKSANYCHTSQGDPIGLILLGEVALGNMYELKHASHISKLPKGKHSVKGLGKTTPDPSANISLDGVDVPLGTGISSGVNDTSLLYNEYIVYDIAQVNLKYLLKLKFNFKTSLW

Row | Compound | IC50 [1, 4] | Kd ([2]; probe displacement HTRF) | Selectivity ([3]; probe displacement HTRF) | Kd [3, 5] | Kd ([3]; PARP1 HTRF, probe displacement HTRF) | IC50 [1, 6] | Kd ([2]; PARP2 probe displacement HTRF) | Kd [3, 7] | Kd [3, 8]
1 | Cc1cnc(-c2ccc(N3CCC(N4CCC(c5nc6ccccc6c(=O)[nH]5)C4)CC3)cn2)n1C (racemic) [Compound 321rac] | 0.1 to 1 µM | 0.1 to 1 µM | − (− indicates a value of less than 10) | 0.1 to 1 µM |  |  |  |  | 
2 | CNC(=O)c1ccc(N2CCC(N3CCC(c4cc5c(c(=O)[nH]4)CCC(=O)N5C)C3)CC2)cn1 (racemic) [Compound 325rac] | < 0.01 µM | 1 to 10 µM | +++ (+++ indicate a value of at least 100) | < 0.01 µM |  |  |  |  | 
3 | CNC(=O)c1ccc(N2CCC(N3CCC(c4cc5cc(OC)ccc5c(=O)[nH]4)C3)CC2)cn1 (racemic) [Compound 334rac] | < 0.01 µM | 1 to 10 µM | ++ (++ indicates a value of 50 to less than 100) | 0.01 to 0.1 µM |  |  |  |  | 
4 | CNC(=O)c1ccc(N2CCC(N3CCC(c4nc5ncncc5c(=O)[nH]4)C3)CC2)cn1 (racemic) [Compound 335rac] | 0.1 to 1 µM | > 10 µM | + (+ indicates a value of 10 to less than 50) | 0.1 to 1 µM |  |  |  |  | 
5 | CNC(=O)c1ccc(N2CCC(N3CCC(c4cc5c(c(=O)[nH]4)CCCC5)C3)CC2)cn1 (racemic) [Compound 336rac] | < 0.01 µM | 0.01 to 0.1 µM | ++ (++ indicates a value of 50 to less than 100) | < 0.01 µM |  |  |  |  | 
6 | CNC(=O)c1ccc(N2CCC(N3CC(c4cc5cccc(F)c5c(=O)[nH]4)CC3=O)CC2)cn1 (racemic) [Compound 362rac] | < 0.01 µM | 1 to 10 µM | +++ (+++ indicate a value of at least 100) | < 0.01 µM |  |  |  |  | 
7 | CNC(=O)c1ccc(N2CCC(N3CCC(c4ccc(CC(F)F)c(=O)[nH]4)C3)CC2)cn1 (racemic) [Compound 391rac] | < 0.01 µM | 1 to 10 µM | +++ (+++ indicate a value of at least 100) | < 0.01 µM |  |  |  |  | 
8 | CNC(=O)c1ccc(N2CCC(N3CCC(c4cc5c(C(F)(F)F)nn(C)c5c(=O)[nH]4)C3)CC2)cn1 (racemic) [Compound 392rac] | 0.1 to 1 µM | > 10 µM | + (+ indicates a value of 10 to less than 50) | 0.1 to 1 µM |  |  |  |  | 
9 | CNC(=O)c1ccc(N2CCC(N3CC(c4cc5cccc(F)c5c(=O)[nH]4)C(F)(F)C3)CC2)cn1 (racemic) [Compound 393rac, 5-(4-(3,3-difluoro-4-(8-fluoro-1-oxo-1,2-dihydroisoquinolin-3-yl)pyrrolidin-1-yl)piperidin-1-yl)-N-methylpicolinamide] | < 0.01 µM | 1 to 10 µM | +++ (+++ indicate a value of at least 100) |  | < 0.01 µM |  |  |  | 
10 | CNC(=O)c1ncc(N2CCC(N3CCC(c4cc5ccc(F)cc5c(=O)[nH]4)C3)CC2)c(Cl)n1 (racemic) [Compound 400rac] | < 0.01 µM | 0.1 to 1 µM | +++ (+++ indicate a value of at least 100) | < 0.01 µM |  |  |  |  | 
11 | CNC(=O)c1ccc(N2CCC(N3CCC(c4[nH]c(=O)c5cc(F)ccc5c4F)C3)CC2)c(F)n1 (racemic) [Compound 403rac] | < 0.01 µM | 0.01 to 0.1 µM | +++ (+++ indicate a value of at least 100) | < 0.01 µM |  |  |  |  | 
12 | CNC(=O)c1ccc(N2CCC(N3CCC(c4cc5c(c(=O)[nH]4)COCC5)C3)CC2)cn1 (racemic) [Compound 405rac] | < 0.01 µM | 0.1 to 1 µM | +++ (+++ indicate a value of at least 100) | < 0.01 µM |  |  |  |  | 
13 | CCc1ccc(C2CC(=O)N(C3CCN(c4ccc(C(=O)NC)nc4)CC3)C2)[nH]c1=O (racemic) [Compound 406rac] | < 0.01 µM | > 10 µM | +++ (+++ indicate a value of at least 100) | < 0.01 µM |  |  |  |  | 
14 | CNC1(c2ccc(N3CCC(N4CCC(c5nc6ccccc6c(=O)[nH]5)C4)CC3)cn2)CC1 (racemic) [Compound 412rac] | 0.1 to 1 µM | > 10 µM | + (+ indicates a value of 10 to less than 50) | 0.1 to 1 µM |  |  |  |  | 
15 | O=c1[nH]c2ccc(N3CCC(N4CCC(c5cc6ccccc6c(=O)[nH]5)C4)CC3)cc2[nH]1 (racemic) [Compound 413rac] | < 0.01 µM | 0.1 to 1 µM | +++ (+++ indicate a value of at least 100) | < 0.01 µM |  |  |  |  | 
16 | CS(=O)(=O)NC(=O)c1ccc(N2CCC(N3CCC(c4cc5ccccc5c(=O)[nH]4)C3)CC2)cn1 (racemic) [Compound 414rac] | 0.01 to 0.1 µM | 0.1 to 1 µM | ++ (++ indicates a value of 50 to less than 100) | 0.01 to 0.1 µM |  |  |  |  | 
17 | CCc1ccc(C2(F)CCN(C3CCN(c4ccc(C(=O)NC)nc4F)CC3)C2)[nH]c1=O (racemic) [Compound 415rac] | 0.01 to 0.1 µM | > 10 µM | +++ (+++ indicate a value of at least 100) | < 0.01 µM |  |  |  |  | 
18 | O=c1[nH]c(C2CCN(C3CCC(F)(F)CC3)C2)nc2ccccc12 (single isomer, unassigned) [Compound 4a] |  |  | − (− indicates a value of less than 10) |  |  | 0.1 to 1 µM | 0.1 to 1 µM | 0.1 to 1 µM | 
19 | CNC(=O)c1ccc(N2CCC(N3CCCC(c4nc5ccccc5c(=O)[nH]4)C3)CC2)cn1 (single isomer, unassigned) [Compound 6a, N-methyl-5-(3-(4-oxo-3,4-dihydroquinazolin-2-yl)-[1,4′-bipiperidin]-1′-yl)picolinamide] |  |  | +++ (+++ indicate a value of at least 100) |  |  | < 0.01 µM | > 10 µM |  | < 0.01 µM
20 | CNC(=O)c1ccc(N2CCC(N3CCCC(c4nc5ccccc5c(=O)[nH]4)C3)CC2)cn1 (single isomer, unassigned) [Compound 6b, N-methyl-5-(3-(4-oxo-3,4-dihydroquinazolin-2-yl)-[1,4′-bipiperidin]-1′-yl)picolinamide] |  |  | + (+ indicates a value of 10 to less than 50) |  |  | 0.1 to 1 µM | 1 to 10 µM |  | 0.1 to 1 µM
21 | CNC(=O)c1ccc(OCCCN2CCCC(c3nc4ccccc4c(=O)[nH]3)C2)cn1 (single isomer, unassigned) [Compound 7a] |  |  | +++ (+++ indicate a value of at least 100) |  |  | 0.01 to 0.1 µM | 0.1 to 1 µM | < 0.01 µM | 
22 | CNC(=O)c1ccc(N2CCC(CN3CCCC(c4nc5ccccc5c(=O)[nH]4)C3)CC2)cn1 (single isomer, unassigned) [Compound 9a] |  |  | +++ (+++ indicate a value of at least 100) |  |  | 0.01 to 0.1 µM | 1 to 10 µM | 0.01 to 0.1 µM | 
23 | CNC(=O)c1ccc(N2CCC(CN3CCCC(c4nc5ccccc5c(=O)[nH]4)C3)CC2)cn1 (single isomer, unassigned) [Compound 9b] |  |  | − (− indicates a value of less than 10) |  |  | 0.01 to 0.1 µM | 0.1 to 1 µM | 0.01 to 0.1 µM | 
24 | CNC(=O)c1ccc(N2CCC(N3CCC(c4nc5ccccc5c(=O)[nH]4)C3)CC2)cn1 (single isomer, unassigned) [Compound 10a, N-methyl-5-(4-(3-(4-oxo-3,4-dihydroquinazolin-2-yl)pyrrolidin-1-yl)piperidin-1-yl)picolinamide] |  |  | +++ (+++ indicate a value of at least 100) |  |  | 0.01 to 0.1 µM | 0.1 to 1 µM |  | < 0.01 µM
25 | O=c1[nH]c(CC2CCCN(C3CCC(F)(F)CC3)C2)nc2ccccc12 (single isomer, unassigned) [Compound 11a] |  |  | − (− indicates a value of less than 10) |  |  | 1 to 10 µM | > 10 µM | 0.1 to 1 µM | 
26 | O=c1[nH]c(CC2CCCN(C3CCC(F)(F)CC3)C2)nc2ccccc12 (single isomer, unassigned) [Compound 11b] |  |  | − (− indicates a value of less than 10) |  |  | 0.1 to 1 µM | 1 to 10 µM | 0.1 to 1 µM | 
